Source: patent US8058245B2, “Fused heterocycle derivative, medicinal composition containing the same, and medicinal use thereof” (Kissei Pharmaceutical Co., Ltd., priority 2004, dated 2011)

Experiments:
human SGLT1 = target: T1, human SGLT1 (Homo sapiens, UniProt P13866); assay: Assay for inhibitory effects on human SGLT1 activity (uptake of methyl-α-D-glucopyranoside in CS1-5-11D cells); format: cell-based; conditions: CHO-K1 cells stably expressing human SGLT1 (CS1-5-11D); 50% inhibition of uptake of 1 mM 14C-labeled/non-labeled methyl-α-D-glucopyranoside, 37° C., 1 hour
T1 construct: expressed in transfected cells
T1 sequence (P13866 1-664): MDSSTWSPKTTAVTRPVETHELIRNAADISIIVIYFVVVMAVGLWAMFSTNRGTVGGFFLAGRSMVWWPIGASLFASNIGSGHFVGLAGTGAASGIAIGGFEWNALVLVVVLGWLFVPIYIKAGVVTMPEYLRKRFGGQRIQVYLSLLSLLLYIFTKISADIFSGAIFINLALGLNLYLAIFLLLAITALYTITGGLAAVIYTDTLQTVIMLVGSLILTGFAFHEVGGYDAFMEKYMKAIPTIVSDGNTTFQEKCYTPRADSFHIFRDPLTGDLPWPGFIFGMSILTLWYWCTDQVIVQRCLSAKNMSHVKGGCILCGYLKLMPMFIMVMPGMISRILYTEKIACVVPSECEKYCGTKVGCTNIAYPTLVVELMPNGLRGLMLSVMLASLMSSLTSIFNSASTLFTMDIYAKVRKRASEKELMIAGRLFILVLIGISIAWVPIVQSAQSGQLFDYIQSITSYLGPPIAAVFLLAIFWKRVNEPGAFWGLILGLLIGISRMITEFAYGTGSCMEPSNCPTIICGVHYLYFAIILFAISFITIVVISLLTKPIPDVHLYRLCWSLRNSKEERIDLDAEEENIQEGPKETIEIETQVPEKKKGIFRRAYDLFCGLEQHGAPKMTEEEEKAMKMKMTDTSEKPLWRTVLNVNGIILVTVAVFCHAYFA
Procedure: Test Example 1 Assay for Inhibitory Effects on Human SGLT1 Activity 1) Cloning and Construction of the Vector Expressing Human SGLT1 The cDNA library was prepared for PCR amplification by reverse transcription from total RNA deprived from human small intestine (Ori gene) using oligo-dT as a primer. Using this cDNA library as a template, the DNA fragment coding 1 to 2005 bp of human SGLT1 (ACCESSION: M24847), which was reported by Hediger et al., was amplified by PCR method and inserted into the multi-cloning site of pcDNA3.1 (−) (Invitrogen). The DNA sequence inserted was perfectly matched to the previously reported sequence. 2) Establishment of Cell Line Stably Expressing Human SGLT1 The expression vector of human SGLT1 was digested by Sca I into a linear DNA. The linear DNA was transfected into CHO-K1 cells by means of lipofection (Effectene Transfection Reagent: QIAGEN). Neomycin resistant cell lines were selected by culture in the medium containing G418 (1 mg/mL, LIFE TECHNOLOGIES), and then the activity against the uptake of methyl-α-D-glucopyranoside was measured by the method described below. […] Radio activity was measured by means of micro-scintillation counter TopCount (Packard). One hundred % was set to the difference between the uptake in the control group and the basal uptake, and the uptake of methyl α-D-glucopyranoside at each drug concentration were calculated. […]

human SGLT2 = target: T2, human SGLT2 (Homo sapiens, UniProt P31639); assay: Assay for inhibitory effects on human SGLT2 activity (uptake of methyl-α-D-glucopyranoside in CS2-5E cells); format: cell-based; conditions: CHO-K1 cells stably expressing human SGLT2 (CS2-5E); 50% inhibition of uptake of 1 mM 14C-labeled/non-labeled methyl-α-D-glucopyranoside, 37° C., 1 hour
T2 construct: expressed in transfected cells
T2 sequence (P31639 1-672): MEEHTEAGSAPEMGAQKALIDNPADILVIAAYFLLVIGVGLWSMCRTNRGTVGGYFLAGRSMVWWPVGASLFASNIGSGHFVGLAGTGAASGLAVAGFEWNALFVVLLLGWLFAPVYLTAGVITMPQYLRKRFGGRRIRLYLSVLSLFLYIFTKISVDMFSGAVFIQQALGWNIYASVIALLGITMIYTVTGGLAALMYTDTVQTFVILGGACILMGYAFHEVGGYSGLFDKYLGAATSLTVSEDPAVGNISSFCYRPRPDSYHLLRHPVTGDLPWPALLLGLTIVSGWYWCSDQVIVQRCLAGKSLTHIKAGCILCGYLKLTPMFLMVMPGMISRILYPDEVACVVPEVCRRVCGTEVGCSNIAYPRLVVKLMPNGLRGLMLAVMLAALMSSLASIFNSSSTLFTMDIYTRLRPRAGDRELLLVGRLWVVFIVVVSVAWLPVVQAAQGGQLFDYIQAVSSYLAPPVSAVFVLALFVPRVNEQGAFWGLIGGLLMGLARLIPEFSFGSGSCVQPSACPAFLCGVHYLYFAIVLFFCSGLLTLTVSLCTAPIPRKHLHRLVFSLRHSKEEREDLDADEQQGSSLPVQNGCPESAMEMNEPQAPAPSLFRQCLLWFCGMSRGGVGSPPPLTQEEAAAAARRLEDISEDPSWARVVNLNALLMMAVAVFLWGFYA
Procedure: Assay for Inhibitory Effects on Human SGLT2 Activity
1) Cloning and Construction of the Vector Expressing Human SGLT2
The cDNA library was prepared for PCR amplification by reverse transcription from total RNA deprived from human kidney (Ori gene) using oligo-dT as a primer. Using this cDNA library as a template, the DNA fragment coding 2 to 2039 bp of human SGLT2 (ACCESSION: M95549, M95299), which was reported by R. G. Wells et al., was amplified by PCR method and inserted into the multi-cloning site of pcDNA3.1 (−) (Invitrogen). The DNA sequence inserted was perfectly matched to the previously reported sequence.
2) Establishment of Cell Line Stably Expressing Human SGLT2
The expression vector of human SGLT2 was digested by Sca I into a linear DNA. The linear DNA was transfected into CHO-K1 cells by means of lipofection (Effectene Transfection Reagent: QIAGEN). Neomycin resistant cell lines were selected by culture in the medium containing G418 (1 mg/mL, LIFE TECHNOLOGIES), and then the activity against the uptake of methyl-α-D-glucopyranoside was measured by the method described below. […] CS2-5E cells were cultured in the presence of G418 at 200 μg/mL. […]
CS2-5E cells were seeded into a 96-well culture plate at a density of 3×10^4 cells/well and cultured for 2 days, and were used in the uptake assay. […] Radio activity was measured by means of micro-scintillation counter TopCount (Packard). […]

Row | Structure (SMILES) | IC50 (human SGLT1) | IC50 (human SGLT2)
1 | OC[C@H]1O[C@@H](c2ccc3scc(CCc4ccccc4)c3c2)[C@H](O)[C@@H](O)[C@@H]1O [Example 1, 1-[3-(2-Phenylethyl)benzo[b]thiophen-5-yl]-1-deoxy-β-D-glucopyranose] | 1500 nM | –
2 | COc1cc2occ(CCc3ccccc3)c2cc1[C@@H]1O[C@H](CO)[C@@H](O)[C@H](O)[C@H]1O [Example 2, 1-[6-Methoxy-3-(2-phenylethyl)benzo[b]furan-5-yl]-1-deoxy-β-D-glucopyranose] | – | 57 nM
3 | CCc1ccc(Cc2csc3ccc([C@@H]4O[C@H](CO)[C@@H](O)[C@H](O)[C@H]4O)cc23)cc1 [Example 9] | – | 1.4 nM
